Experiments:
pseudoazurin [1] = molecular target: T1, pseudoazurin (UniProt P04377)
T1 sequence: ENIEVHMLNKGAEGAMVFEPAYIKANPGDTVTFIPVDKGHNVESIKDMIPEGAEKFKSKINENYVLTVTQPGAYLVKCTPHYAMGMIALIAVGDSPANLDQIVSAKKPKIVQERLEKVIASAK

NiR M150G = molecular target: T2, NiR M150G (Alcaligenes faecalis, UniProt P38501, M186G); assay: Activity assay monitoring oxidation of pseudoazurin, NiR M150G with external ligands; format: biochemical, A. faecalis S-6; conditions: for effect of external ligand on catalytic activity of NiR M150G: in words; for kcat^sat of NiR M150G saturated with external ligand: pseudoazurin 275-325 μM, nitrite 5 mM, 50 mM Mops pH 7.0
T2 construct: His tag (C, cleaved yes); made in house
Experimental: (§1) Activity assays were carried out by monitoring the oxidation of pseudoazurin as described (3). The concentrations of the electron donor pseudoazurin (275-325 μM) and the electron acceptor nitrite (5 mM) were saturating. The concentration of NiR was typically 1 nM. The buffer for activity assays was always 50 mM Mops pH 7.0. Whenever using volatile compounds, the cuvette was sealed with a PTFE stopper. All reported activities were calculated from initial rates. Apparent dissociation constants (KD^app) were obtained from a least-squares fit of activity (v) versus ligand concentration to v=v^NoLigand+Δv×[L]/(KD^app+[L]). The meaning of KD^app will be explained in the Discussion section.

type-1 site of NiR M150G [2] = molecular target: T3, type-1 site of NiR M150G (Alcaligenes faecalis, UniProt P38501, M186G); assay: biochemical; format: binding, A. faecalis S-6
T3 construct: His tag (C, cleaved yes); made in house
From the text: Spectroscopy and assays—The spectrophotometer was a Perkin Elmer Instruments Lambda 800.

wt NiR = molecular target: T4, wt NiR (Alcaligenes faecalis, UniProt P38501); assay: Activity assay monitoring oxidation of pseudoazurin, wt NiR with external ligands; format: biochemical, A. faecalis S-6; conditions: for effect of external ligand on catalytic activity of wt NiR: in words
T4 construct: His tag (C, cleaved yes); made in house
Experimental: as §1

type-1 site of NiR M150G [3] = molecular target: T3, type-1 site of NiR M150G; format: binding, A. faecalis S-6; conditions: versus NHE, NiR M150G with external ligand bound, interpreted as upper limit
Experimental: Potentiometric titrations—Potentiometric titrations were carried out as described by Dutton (47) in a cuvette held at 298 K in 100 mM potassium phosphate pH 7.0. The NiR concentration was typically 40 mM. Diaminodurol (2,3,5,6-tetramethyl-1,4-phenylenediamine) was used as a redox mediator at 100-200 μM. Potassium ferricyanide and sodium dithionite were used to change the potential of the solution. Visible absorption and the potential of the solution were monitored until both were stable. Spectra were recorded in the range of 510-800 nm since diaminodurol gives negligible absorbance in this region.
The recorded spectra were integrated using a routine written in Igor Pro (WaveMetrics Inc.). For base line correction this routine approximated the scattering contributions (due to aggregated protein) either by a linear approximation or by a method described elsewhere (48). […] The integrated absorbance versus potential was fitted to the Nernst equation with the number of electrons held at one. […]
in which EM^NL is the reduction potential without ligand, [L] denotes the free ligand concentration, KD^ox and KD^red are the ligand dissociation constants from the oxidized and reduced type-1 site respectively, R is the gas constant, F is the Faraday constant and T is the absolute temperature. […] The midpoint potential of the type-1 site with the external ligand bound (EM^L) was calculated from equation 2. […]

pseudoazurin, P04377 = molecular target: T5, pseudoazurin, P04377
T5 chain: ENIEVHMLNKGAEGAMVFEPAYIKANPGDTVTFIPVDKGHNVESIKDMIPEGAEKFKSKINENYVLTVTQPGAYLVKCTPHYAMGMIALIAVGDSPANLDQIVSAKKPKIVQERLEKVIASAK

pseudoazurin [4] = assay: Catalytic activity of NiR variants with the physiological electron donor pseudoazurin and nitrite; format: biochemical, A. faecalis S-6; conditions: no external ligand; pseudoazurin 275-325 μM, nitrite 5 mM, 50 mM Mops pH 7.0
Experimental: as §1

[5] = in words; cited from earlier work

T2 sequence (P38501 other isoform, or with tags, fused parts or gaps M186G): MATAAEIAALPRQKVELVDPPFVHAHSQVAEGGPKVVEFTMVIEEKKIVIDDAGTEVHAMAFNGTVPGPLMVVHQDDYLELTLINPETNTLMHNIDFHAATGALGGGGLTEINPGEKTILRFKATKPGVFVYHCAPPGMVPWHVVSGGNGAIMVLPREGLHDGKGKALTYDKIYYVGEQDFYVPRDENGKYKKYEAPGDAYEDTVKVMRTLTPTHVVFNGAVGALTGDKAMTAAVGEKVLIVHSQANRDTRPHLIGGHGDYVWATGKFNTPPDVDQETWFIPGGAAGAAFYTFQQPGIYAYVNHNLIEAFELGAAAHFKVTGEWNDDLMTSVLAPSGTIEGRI
T3 sequence (P38501 other isoform, or with tags, fused parts or gaps M186G): as above

**Q.** For “nitrite reductase M150T from Alcaligenes faecalis S-6”, which kcat^sat (oxidation of pseudoazurin, no external ligand) (pseudoazurin [1]) is on record?
**A.** 126 s⁻¹

**Q.** With `CSC` [dimethylsulfide] as the molecule, how does the Kd (NiR M150G) read?
**A.** 34 ± 7 mM

**Q.** What about the “effect of external ligand on catalytic activity of NiR M150G” value (shortened to “effect of external ligand … of NiR M150G”) (NiR M150G) of the same molecule?
**A.** restored the activity up to the level of wt NiR

**Q.** And the “kcat^sat of NiR M150G saturated with external ligand” value (“kcat^sat of NiR M150G saturated” below) (NiR M150G)?
**A.** 373 ± 22 s⁻¹

**Q.** And the Kd (type-1 site of NiR M150G [2])?
**A.** 21 ± 4 mM

**Q.** For `CCSC` [ethylmethylsulfide], which Kd (NiR M150G) is on record?
**A.** > 73 mM

**Q.** What about the “effect of external ligand … of NiR M150G” value (NiR M150G) of the same molecule?
**A.** activity doubled

**Q.** And the “kcat^sat of NiR M150G saturated” value (NiR M150G)?
**A.** >292 s⁻¹

**Q.** And the Kd (type-1 site of NiR M150G [2])?
**A.** 14 ± 6 mM

**Q.** What about the “effect of external ligand on catalytic activity of wt NiR” value (“effect of external ligand … of wt NiR” for short) (wt NiR) of the same molecule?
**A.** constant activity

**Q.** For `CC#N` [acetonitrile], which “kcat^sat of NiR M150G saturated” value (NiR M150G) is on record?
**A.** >390^A s^−1

**Q.** And the Kd (type-1 site of NiR M150G [2])?
**A.** 71.5 ± 7.3 mM

**Q.** And the “increase of catalytic activity” value (wt NiR; wt NiR)?
**A.** 50%

**Q.** For “nitrite reductase M150H from Alcaligenes faecalis S-6”, which kcat^sat (oxidation of pseudoazurin, no external ligand) (pseudoazurin [1]) is on record?
**A.** 0.099 s⁻¹

**Q.** Which “effect of external ligand … of NiR M150G” value (NiR M150G) does the source give for `NC=O` [formamide] here?
**A.** activity doubled

**Q.** What about the “kcat^sat of NiR M150G saturated” value (NiR M150G) of the same molecule?
**A.** >255 s⁻¹

**Q.** And the “effect of external ligand … of wt NiR” value (wt NiR)?
**A.** constant activity

**Q.** For `CC(N)=O` [acetamide], which “effect of external ligand … of NiR M150G” value (NiR M150G) is on record?
**A.** restored the activity up to the level of wt NiR

**Q.** What about the “kcat^sat of NiR M150G saturated” value (NiR M150G) of the same molecule?
**A.** 374 ± 28 s⁻¹

**Q.** What about the Kd (type-1 site of NiR M150G [2]) of the same molecule?
**A.** 71 ± 3 mM

**Q.** And the “fitted reduction potential with ligand bound (EM^L)” value (type-1 site of NiR M150G [3])?
**A.** < 225 mV

**Q.** With “nitrite reductase M150G from Alcaligenes faecalis S-6” as the molecule, how does the kcat^sat (oxidation of pseudoazurin, no external ligand) (pseudoazurin [1]) read?
**A.** 133 s⁻¹

**Q.** What about the kcat^sat (oxidation of pseudoazurin, saturated with acetamide) (pseudoazurin [1]) of the same molecule?
**A.** 374 s⁻¹

**Q.** What about the kcat^sat (oxidation of pseudoazurin, saturated with dimethylsulfide) (pseudoazurin [1]) of the same molecule?
**A.** 373 s⁻¹

**Q.** What about the “kcat^sat (oxidation of pseudoazurin, with acetonitrile)” value (pseudoazurin [1]) of the same molecule?
**A.** >390^A

**Q.** And the kcat^sat (oxidation of pseudoazurin, with ethylmethylsulfide) (pseudoazurin [1])?
**A.** > 292 s⁻¹

**Q.** What about the kcat^sat (oxidation of pseudoazurin, with formamide) (pseudoazurin [1]) of the same molecule?
**A.** > 255 s⁻¹

**Q.** With `Cc1cscn1` [4-methylthiazole] as the molecule, how does the Kd (type-1 site of NiR M150G [2]) read?
**A.** 22 ± 3 mM

**Q.** For `c1ccncc1` [pyridine], which “fitted reduction potential with ligand bound (EM^L)” value (type-1 site of NiR M150G [3]) is on record?
**A.** < 245 mV

**Q.** Which “effect of external ligand … of NiR M150G” value (NiR M150G) does the source give for `c1c[nH]cn1` [imidazole] here?
**A.** decreased in activity

**Q.** And the Kd (type-1 site of NiR M150G [2])?
**A.** 52 ± 3 mM

**Q.** What about the “rate of slow spectral change (absorption at 430 nm versus time, single exponential)” value (type-1 site of NiR M150G [2]; NiR M150G with imidazole 260 mM, 25° C.) of the same molecule?
**A.** 0.823 ± 0.003 h⁻¹

**Q.** What about the “effect of external ligand … of wt NiR” value (wt NiR) of the same molecule?
**A.** decreased in activity

B1: wild-type Cu-containing nitrite reductase from Alcaligenes faecalis S-6 (protein)
chain: QGAVRKATAAEIAALPRQKVELVDPPFVHAHSQVAEGGPKVVEFTMVIEEKKIVIDDAGTEVHAMAFNGTVPGPLMVVHQDDYLELTLINPETNTLMHNIDFHAATGALGGGGLTEINPGEKTILRFKATKPGVFVYHCAPPGMVPWHVVSGMNGAIMVLPREGLHDGKGKALTYDKIYYVGEQDFYVPRDENGKYKKYEAPGDAYEDTVKVMRTLTPTHVVFNGAVGALTGDKAMTAAVGEKVLIVHSQANRDTRPHLIGGHGDYVWATGKFNTPPDVDQETWFIPGGAAGAAFYTFQQPGIYAYVNHNLIEAFELGAAAHFKVTGEWNDDLMTSVLAPSGT
**Q.** Which results are given for B1?
**A.** kcat^sat (oxidation of pseudoazurin, no external ligand) (pseudoazurin, P04377): 416 s⁻¹; kcat^sat (pseudoazurin [4]): 416 ± 10 s⁻¹

B2: Achromobacter cycloclastes NiR M150Q: literature Met150Gln mutant of Achromobacter cycloclastes nitrite reductase (protein, UniProt P25006 39-378, looked up, variant M150Q)
Copper-containing nitrite …: AAGAAPVDISTLPRVKVDLVKPPFVHAHDQVAKTGPRVVEFTMTIEEKKLVIDREGTEIHAMTFNGSVPGPLMVVHENDYVELRLINPDTNTLLHNIDFHAATGALGGGALTQVNPGEETTLRFKATKPGVFVYHCAPEGMVPWHVTSGQNGAIMVLPRDGLKDEKGQPLTYDKIYYVGEQDFYVPKDEAGNYKKYETPGEAYEDAVKAMRTLTPTHIVFNGAVGALTGDHALTAAVGERVLVVHSQANRDTRPHLIGGHGDYVWATGKFRNPPDLDQETWLIPGGTAGAAFYTFRQPGVYAYVNHNLIEAFELGAAGHFKVTGEWNDDLMTSVVKPASM
**Q.** With B2 as the molecule, how does the “electron transfer rate (literature)” value [5] read?
**A.** decreased below the detection limit

— US20100167311A1, “Oxidoreductases and Processes Utilising Such Enzymes” (priority 2006, published 2010)
